Laboratory results from patent US20090105278A1, “Selective inhibitors of human corticosteroid syntheses” (Universitat Des Saarlandes, priority 2004, published 2009).
Where a name gives a salt, the structure may show the parent alone. Read-outs that look alike come from different tables or passages of the source.

Assays:
[1] = biological target: T1, human placental CYP19 (Homo sapiens, UniProt P11511); assay: IC50 of CYP19 (human placental microsomes); format: biochemical
T1 construct: The enzyme was obtained from the microsome fraction of fresh human placenta; from tissue; host or cells: human placenta, microsomal fraction
T1 sequence (P11511 1-503): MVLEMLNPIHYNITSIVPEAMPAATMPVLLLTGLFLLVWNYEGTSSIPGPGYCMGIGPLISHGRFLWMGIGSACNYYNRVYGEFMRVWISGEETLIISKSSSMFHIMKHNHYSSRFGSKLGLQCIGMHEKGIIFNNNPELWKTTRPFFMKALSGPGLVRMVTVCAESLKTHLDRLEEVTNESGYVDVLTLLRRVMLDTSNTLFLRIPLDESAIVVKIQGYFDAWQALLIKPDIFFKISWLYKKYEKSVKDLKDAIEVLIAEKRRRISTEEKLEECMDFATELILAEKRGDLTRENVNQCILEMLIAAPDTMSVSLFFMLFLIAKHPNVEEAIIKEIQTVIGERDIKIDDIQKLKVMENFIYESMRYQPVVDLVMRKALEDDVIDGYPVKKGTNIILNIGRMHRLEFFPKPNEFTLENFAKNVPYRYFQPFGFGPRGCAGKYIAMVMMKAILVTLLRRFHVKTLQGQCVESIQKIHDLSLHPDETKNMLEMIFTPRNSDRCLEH
Description: The isolated microsomes were suspended in a minimum volume of phosphate buffer (0.05 M; pH 7.4; […]). In addition, DTT (10 mM) and EDTA (1 mM) were added to protect the enzyme from degradation reactions.
[…] […] The compounds to be tested were dissolved in DMSO and diluted with buffer to the desired concentration. The final DMSO concentration of the control and inhibitor incubations was about 20%. Each vessel was preincubated in a water bath at 30° C. for 5 min. The reaction was started by adding the microsomal protein (0.1 mg). The total volume of each mixture was 200 μl. After 14 min, the reaction was quenched by adding 200 μl of ice cold 1 mM HgCl2 solution. Two hundred microliters of a 2% aqueous suspension of dextran-coated charcoal, DCC) was added for absorbing the steroids, and the vessels were shaken for 20 min. Thereafter, the charcoal was centrifuged off at 1500 g for 5 min. The radioactive water present in the supernatant (^3H2O) was assayed by scintillation measurement using an LKB-Wallac beta counter. The calculation of the IC50 values was effected by a semilogarithmic plot of the percent inhibition against the inhibitor concentration.

[2] = biological target: T2, bovine adrenal CYP11B (Bos taurus, UniProt P15150); assay: Percent inhibition of bovine CYP11B (adrenal mitochondria); conditions: corticosterone substrate 200 μM, inhibitor 1 μM; for inhibition at 1 µM: read-out: % Inhibition bovine bCYP11B, bovine adrenal mitochondria, 1 mg/ml protein; for % Inhibition bovine bCYP11B: bovine adrenal mitochondria, 1 mg/ml protein
T2 sequence (P15150 25-503): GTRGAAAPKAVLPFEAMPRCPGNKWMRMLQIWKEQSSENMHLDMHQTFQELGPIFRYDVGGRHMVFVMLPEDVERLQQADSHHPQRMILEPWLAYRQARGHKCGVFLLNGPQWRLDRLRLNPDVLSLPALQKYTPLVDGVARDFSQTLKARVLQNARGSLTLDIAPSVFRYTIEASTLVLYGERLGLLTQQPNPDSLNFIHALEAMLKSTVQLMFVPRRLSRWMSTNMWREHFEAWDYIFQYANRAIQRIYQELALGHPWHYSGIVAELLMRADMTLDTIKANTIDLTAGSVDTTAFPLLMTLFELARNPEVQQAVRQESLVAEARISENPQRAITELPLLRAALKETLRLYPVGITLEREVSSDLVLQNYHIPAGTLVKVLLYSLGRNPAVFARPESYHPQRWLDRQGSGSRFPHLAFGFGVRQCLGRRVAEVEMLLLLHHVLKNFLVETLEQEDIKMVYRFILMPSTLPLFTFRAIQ
Description: Bovine adrenal glands obtained freshly after slaughtering were stored in ice cold Tris-sucrose buffer (0.25 M sucrose, 0.05 M Tris; pH 7.4) until processed. After removing the appending adipose tissue, the adrenal medulla was carefully separated from the adrenal cortex using scissors. The pieces of adrenal cortex were coarsely comminuted with scissors, washed with Tris-sucrose buffer, weighed and finely comminuted in the above buffer (2 ml per g of tissue) with a hand mixer. Thereafter, the tissue was homogenized with an Ultra-Turrax mixer. For separating coarse cell debris and the nuclei, the homogenizate was centrifuged twice for 15 min at 900 g and 4° C. The supernatant was subsequently centrifuged for 35 min at 11,000 g for recovering the mitochondrial fraction. For purifying the mitochondrial fraction, the precipitate was resuspended in Tri-sucrose buffer and again centrifuged at 11,000 g for 35 min. This washing step was performed two times in total. After the last centrifugation, the pellet was resuspended in Tris-sucrose buffer containing 0.001 M EDTA and frozen at −70° C.
The substrate corticosterone was dissolved in methanol and diluted with Tris buffer to a final concentration of 200 μM. The inhibitors were also dissolved in methanol and diluted with buffer to a final concentration of 1 μM. […] Corticosterone (200 μM) was incubated with inhibitor (1 μM) and mitochondrial enzyme (0.5 mg/0.5 ml) with the addition of a regenerating system consisting of NADP^+ (1 mM), glucose-6-phosphate (7 mM) and glucose-6-Phosphate dehydrogenase (1 IU/0.5 ml). Up to 5 inhibitors per test could be incubated in duplicate. […] After preincubation for 5 minutes (30° C.; water bath), the reaction was started by adding mitochondrial suspension. […] The blind values were admixed with 250 μl of HCl before the enzyme was pipetted in. The steroids were separated off by shaking with 1 ml of ethyl acetate (10 min). After centrifugation (15,000 g, 10 min), 900 μl of the organic phase was shaken with 250 μl 1 N NaOH (10 min), and 800 μl of supernatant was again washed with 250 μl of buffer. […] 18-OH-corticosterone (retention time: 10 min) and corticosterone (retention time: 21 min) were separated. The height of the 18-OH-corticosterone peak was used for evaluation. The percent inhibition of the 18-hydroxylation of corticosterone by the inhibitors was based on the mediums of the control incubation, taking the blind values into account.

[3] = human placental CYP19, testosterone substrate 2.5 μM

| Molecule | IC50 [1, 3] | other results |
| --- | --- | --- |
| C(=C1/CCCc2ccccc21)/c1cnc[nH]1 [Compound 41a, 5-[(E)-3,4-Dihydronaphth-1(2H)-ylidenemethyl]-1H-imidazole] | 0.226 µM | melting point: 136 to 138 °C; inhibition at 1 µM [2]: 40% |
| 5-[(Z)-(5-Chloro-2,3-dihydro-1H-indene-1-ylidene)methyl]-1H-imidazolium oxalate [Compound 48b] | 0.039 µM | % Inhibition bovine bCYP11B [2]: 87% |
| Fc1ccc2c(c1)CC/C2=C/c1cccc2cnccc12 [Compound 30b, 5-[(Z)-(5-Fluoro-2,3-dihydro-1H-indane-1-ylidene)methyl]isoquinoline Hydrochloride] | 1.94 µM | – |
| C(=C1\CCc2ccccc21)/c1cnc[nH]1 [Compound 42b, 5-[(Z)-2,3-Dihydro-1H-ind-1-ylidenemethyl]-1H-imidazolium oxalate] | – | % Inhibition bovine bCYP11B [2]: 94%; inhibition at 1 µM [2]: ~90% |
| Brc1ccc2c(c1)CC/C2=C\c1cnc[nH]1.Cl [Compound 49a, 5-[(E)-(5-Bromo-2,3-dihydro-1H-indene-1-ylidene)methyl]-1H-imidazolium chloride] | – | melting point: 228 °C; inhibition at 1 µM [2]: 63% |
| C(=C1\CCc2ccccc21)/c1ccncc1 [Compound 2b, 4-[(Z)-2,3-Dihydro-1H-indane-1-ylidenemethyl]pyridine oxalate] | 12.7 µM | – |
| Clc1cccc2c1CC/C2=C\c1cccnc1 [Compound 25a, 3-[(E)-(4-Chloro-2,3-dihydro-1H-indane-1-ylidene)methyl]pyridine Hydrochloride] | 0.13 µM | – |
| 5-[(Z)-(5-Bromo-2,3-dihydro-1H-indene-1-ylidene)methyl]-1H-imidazolium oxalate [Compound 49b] | – | % Inhibition bovine bCYP11B [2]: 88% |
| Fc1ccc2c(c1)CC/C2=C\c1ccncc1 [Compound 6a, 4-[(E)-(5-Fluoro-2,3-dihydro-1H-indane-1-ylidene)methyl]pyridine Hydrochloride] | 1.55 µM | – |
| 5-[(E)-(6-Chloro-3,4-dihydronaphth-1(2H)-ylidene)methyl]-1H-imidazolium chloride [Compound 46a] | 0.12 µM | % Inhibition bovine bCYP11B [2]: 66% |
| Clc1cccc2c1CC/C2=C/c1cccnc1 [Compound 25b, 3-[(Z)-(4-Chloro-2,3-dihydro-1H-indane-1-ylidene)methyl]pyridine Hydrochloride] | 0.23 µM | – |
| Fc1ccc2c(c1)CC/C2=C\c1cncnc1 [Compound 28a, 5-[(E)-(5-Fluoro-2,3-dihydro-1H-indane-1-ylidene)methyl]pyrimidine Hydrochloride] | 7.45 µM | – |
| 5-[(Z)-3,4-Dihydronaphth-1(2H)-ylidenemethyl]-1H-imidazolium oxalate [Compound 41b] | 0.19 µM | % Inhibition bovine bCYP11B [2]: 95% |
| Fc1ccc2c(c1)CC/C2=C\c1cccc2cnccc12 [Compound 30a, 5-[(E)-(5-Fluoro-2,3-dihydro-1H-indane-1-ylidene)methyl]isoquinoline Hydrochloride] | 0.72 µM | – |
| Fc1cccc2c1CC/C2=C\c1cccnc1 [Compound 24a, 3-[(E)-(4-Fluoro-2,3-dihydro-1H-indane-1-ylidene)methyl]pyridine Hydrochloride] | 1.81 µM | – |
| Clc1ccc2c(c1)CC/C2=C\c1ccncc1 [Compound 8a, 4-[(E)-(5-Chloro-2,3-dihydro-1H-indane-1-ylidene)methyl]pyridine Hydrochloride] | 5.43 µM | – |
| C(=C1\CCc2ccccc21)/c1cccnc1.Cl [Compound 1b, 3-[(Z)-2,3-Dihydro-1H-indane-1-ylidenemethyl]pyridine Hydrochloride] | – | IC50 [1]: 3.55 µM |
| Fc1ccc2c(c1)CC/C2=C\c1cccnc1 [Compound 5a, 3-[(E)-(5-Fluoro-2,3-dihydro-1H-indane-1-ylidene)methyl]pyridine Hydrochloride] | 2.54 µM | – |
| Fc1ccc2c(c1)CC/C2=C/c1ccncc1 [Compound 6b, 4-[(Z)-(5-Fluoro-2,3-dihydro-1H-indane-1-ylidene)methyl]pyridine Hydrochloride] | 0.8 µM | – |
| C(=C1/CCc2ccccc21)/c1cnc[nH]1 [Compound 42a, 5-[(E)-2,3-Dihydro-1H-indane-1-ylidenemethyl]-1H-imidazole] | – | inhibition at 1 µM [2]: 62% |

The next lines start with results.

| IC50 [1, 3] | Molecule | other results |
| --- | --- | --- |
| 4.26 µM | Clc1ccc2c(c1)CC/C2=C\c1cccnc1 [Compound 7a, 3-[(E)-(5-Chloro-2.3-dihydro-1H-indane-1-ylidene)methyl]pyridine Hydrochloride] | – |
| 4 µM | COc1ccc2c(c1)CCC/C2=C/c1cccnc1.Cl [Compound 13b, 3-[(Z)-(6-Methoxy-3,4-dihydronaphthalene-1(2H)-ylidene)methyl]pyridine Hydrochloride] | melting point: 151 °C |
| 5.57 µM | COc1ccc2c(c1)CC/C2=C/c1cccnc1 [Compound 11b, 3-[(Z)-(5-Methoxy-2,3-dihydro-1H-indane-1-ylidene)methyl]pyridine Hydrochloride] | – |
| 6.58 µM | C(=C1/CCCc2ccccc21)/c1cccnc1.Cl [Compound 3a, 3-[(E)-3,4-Dihydronaphthalene-1(2H)-ylidenemethyl]pyridine Hydrochloride] | melting point: 209 °C |
| 7.08 µM | CCOc1ccc2c(c1)CC/C2=C\c1cccnc1 [Compound 19a, 3-[(E)-(5-Ethoxy-2,3-dihydro-1H-indane-1-ylidene)methyl]pyridine Hydrochloride] | – |
| 4.31 µM | COc1ccc2c(c1)CC/C2=C\c1cccnc1 [Compound 11a, 3-[(E)-(5-Methoxy-2,3-dihydro-1H-indane-1-ylidene)methyl]pyridine Hydrochloride] | – |
| 3.79 µM | C(=C1\CCCc2ccccc21)/c1cccnc1.Cl [Compound 3b, 3-[(Z)-3,4-Dihydronaphthalene-1(2H)-ylidenemethyl]pyridine Hydrochloride] | melting point: 206 °C |
| 1.13 µM | COc1ccc2c(c1)CCC/C2=C\c1cccnc1 [Compound 13a, 3-[(E)-(6-Methoxy-3,4-dihydronaphthalene-1(2H)-ylidene)methyl]pyridine Hydrochloride] | – |
| 7.37 µM | Brc1ccc2c(c1)CC/C2=C/c1cccnc1 [Compound 9b, 3-[(Z)-(5-Bromo-2,3-dihydro-1H-indane-1-ylidene)methyl]pyridine Hydrochloride] | – |
| 4.05 µM | Clc1ccc2c(c1)CC/C2=C/c1cccnc1 [Compound 7b, 3-[(Z)-(5-Chloro-2,3-dihydro-1H-indane-1-ylidene)methyl]pyridine Hydrochloride] | – |
| 4.72 µM | Cc1cccc2c1CC/C2=C\c1cccnc1 [Compound 23a, 3-[(E)-(4-Methyl-2,3-dihydro-1H-indane-1-ylidene)methyl]pyridine Hydrochloride] | – |
| 9.74 µM | COc1cccc2c1/C(=C/c1cccnc1)CC2 [Compound 26a, 3-[(E)-(7-Methoxy-2,3-dihydro-1H-indane-1-ylidene)methyl]pyridine Hydrochloride] | – |
| 7.83 µM | Brc1ccc2c(c1)CC/C2=C\c1cccnc1 [Compound 9a, 3-[(E)-(5-Bromo-2,3-dihydro-1H-indane-1-ylidene)methyl]pyridine Hydrochloride] | – |
| 7.68 µM | CCOc1ccc2c(c1)CC/C2=C/c1cccnc1 [Compound 19b, 3-[(Z)-(5-Ethoxy-2,3-dihydro-1H-indane-1-ylidene)methyl]pyridine Hydrochloride] | – |
| 2.04 µM | C(=C1/CCc2ccccc21)/c1cccnc1 [Compound 1a, 3-[(E)-2,3-Dihydro-1H-indane-1-ylidenemethyl]pyridine Hydrochloride] | – |
